Laboratory results taken from patent US20040171489A1, “Synergistic active compound combinations for controlling harmful plants” (priority 1998, published 2004).

How the values were obtained:
[1] = system: winter wheat; test: Example 9 field trials, application 1-3 leaf stage broad-leaved weeds: crop damage; type: in vivo, Triticum aestivum; settings: 100 g of ai/ha; 120 to 160 days after application
Protocol: (§1) The herbicidal efficacy of the active compounds or active compound mixtures was scored visually using the treated plots in comparison to untreated control plots. The damage and development of all above-ground parts of the plants were recorded. Scoring was carried out using a percentage scale (100% effect=all plants killed; 50% effect=50% of the plants and the green parts of the plants killed; 0% effect=no noticeable effect=like control plot. The scores of in each case 4 plots were averaged.
(§2) If the observed activity values already exceed the formal sum of the values for the trials with the individual applications, they also exceed the expected value according to Colby which is calculated using the following formula and which is likewise considered to be an indication of synergism (cf. S. R. Colby; in Weeds 15 (1967) p. 20 to 22):
(§3) Crop plants were grown outdoors on plots under natural outdoor conditions, and seeds or rhizome pieces of typical harmful plants were laid out or the natural weed growth was utilized. Treatment with the compositions according to the invention was carried out after the harmful plants had emerged and the crop plants were, generally, at the 2- to 4-leaf stage; in some cases (as stated), application of individual active compounds or active compound combinations was carried out pre-emergence (cf. Section 1) or post-emergence (cf. Section 2) or as a sequential treatment partly pre-emergence and/or post-emergence. After the application, for example 2, 4, 6 and 8 weeks after the application, the effect of the preparations was scored visually by comparison with untreated controls (cf. scoring in Section 1). In the field trial as well, the compositions according to the invention have synergistic herbicidal activity against a broad spectrum of economically important weed grasses and broad-leaved weeds. […] Moreover, the effects in essential phases of the scoring period were above the expected values according to Colby, also indicating synergism. […]

[2] = system: Galium aparine; test: Example 10 pre-emergence application, fall: herbicidal effect; type: in vivo; settings: 169 days after application
Description: (§4) Seeds or rhizome pieces of monocotyledonous and dicotyledonous weed plants are placed in sandy loam soil in pots and covered with soil. The compositions, formulated in the form of concentrated aqueous solutions, wettable powders or emulsion concentrates, are then applied to the surface of the soil cover as aqueous solution, suspension or emulsion at an application rate of 600 to 800 l of water/ha (converted), in various dosages. After the treatment, the pots are placed in a greenhouse and kept under good growth conditions for the weeds. After the test plants have emerged, the damage to the plants or the negative effects on the emergence is scored visually after a test period of 3 to 4 weeks by comparison with untreated controls. As shown by the test results, the compositions according to the invention have good herbicidal pre-emergence activity against a broad spectrum of weed grasses and broad-leaved weeds.
as §1, §2
(§5) Crop plants were grown outdoors on plots under natural outdoor conditions, and seeds or rhizome pieces of typical harmful plants were laid out or the natural weed growth was utilized. Treatment with the compositions according to the invention was carried out after the harmful plants had emerged and the crop plants were, generally, at the 2- to 4-leaf stage; in some cases (as stated), application of individual active compounds or active compound combinations was carried out pre-emergence (cf. Section 1) or post-emergence (cf. Section 2) or as a sequential treatment partly pre-emergence and/or post-emergence. After the application, for example 2, 4, 6 and 8 weeks after the application, the effect of the preparations was scored visually by comparison with untreated controls (cf. scoring in Section 1). In the field trial as well, the compositions according to the invention have synergistic herbicidal activity against a broad spectrum of economically important weed grasses and broad-leaved weeds. […] Moreover, the effects in essential phases of the scoring period were above the expected values according to Colby, also indicating synergism. In contrast, the crop plants were, as a consequence of the treatments with the herbicidal compositions, damaged only to a small degree, if at all.

[3] = system: summer wheat; test: Example 14 field trial, 2- to 4-leaf stage: crop damage; type: in vivo, Triticum aestivum; settings: 28 days after application
Protocol: The damage and development of all above-ground parts of the plants were recorded.
Crop plants were grown outdoors on plots under natural outdoor conditions, and seeds or rhizome pieces of typical harmful plants were laid out or the natural weed growth was utilized.

[4] = system: winter wheat; test: Example 15 field trial, 2- to 4-leaf stage: crop damage; type: in vivo, Triticum aestivum; settings: 28 days after application
Protocol: as §1, §2, §5

[5] = system: Anthemis arvensis; test: Example 16 field trial, post-emergence, 2- to 3-leaf stage: herbicidal effect; type: in vivo; settings: 50 g of ai/ha; 69 days after application
Protocol: as §1, §2, §5

[6] = system: Galium aparine; test: as above; type: in vivo; settings: 50 g of ai/ha; 69 days after application
Protocol: as §1, §2, §5

[7] = system: Lamium ssp.; test: as above; type: in vivo; settings: 50 g of ai/ha; 69 days after application
Protocol: as §1, §2, §5

[8] = system: Matricaria chamomilla; test: as above; type: in vivo; settings: 50 g of ai/ha; 69 days after application
Protocol: as §1, §2, §5

[9] = system: Myosotis arvensis; test: as above; type: in vivo; settings: 50 g of ai/ha; 69 days after application
Protocol: as §1, §2, §5

[10] = system: Papaver rhoeas; test: as above; type: in vivo; settings: 50 g of ai/ha; 69 days after application
Protocol: as §1, §2, §5

[11] = system: Viola arvensis; test: as above; type: in vivo; settings: 50 g of ai/ha; 69 days after application
Protocol: as §1, §2, §5

[12] = system: Ipomoea hederacea; test: Example 17 field trial, pre-emergence: herbicidal effect; type: in vivo; settings: 16 days after application
Description: as §4, §1, §2, §5

[13] = system: Setaria faberi; test: as above; type: in vivo; settings: 16 days after application
Description: as §4, §1, §2, §5

[14] = system: Zea mays (corn); test: Example 19 field trial, 4 to 5-leaf stage: crop damage; type: in vivo; settings: 100 g of ai/ha; 31 days after application
Protocol: as §1, §2
(§6) Crop plants were grown outdoors on plots under natural outdoor conditions, and seeds or rhizome pieces of typical harmful plants were laid out or the natural weed growth was utilized. […] After the application, for example 2, 4, 6 and 8 weeks after the application, the effect of the preparations was scored visually by comparison with untreated controls (cf. scoring in Section 1). […]

[15] = system: Echinochloa crus-galli; test: Example 19 field trial, 4 to 5-leaf stage: herbicidal effect; type: in vivo; settings: 100 g of ai/ha; 31 days after application
Protocol: as §1, §2, §6

[16] = system: Setaria viridis; test: as above; type: in vivo; settings: 100 g of ai/ha; 31 days after application
Protocol: as §1, §2, §6

[17] = system: Oryza sativa (rice); test: Example 21 field trial, 4-leaf stage: crop damage; type: in vivo; settings: 42 days after application
Protocol: as §1, §2, §3

Structure (SMILES): CC(C)(F)c1nc(N)nc(NC(CCc2ccccc2)C2CCC2)n1 (centres unmarked) [(A1), 4-amino-6-(1-fluoro-1-methylethyl)-2-(3-phenyl-1-cyclobutylpropylamino)-1,3,5-triazine]
- damage, TRZAW [1]: 0%
- herbicidal effect, GALAP ([2]; 50 g of ai/ha): 45%
- herbicidal effect, GALAP ([2]; 100 g of ai/ha): 45%
- damage, TRZAS ([3]; 25 g of ai/ha): 2%
- damage, TRZAS ([3]; 50 g of ai/ha): 2%
- damage, TRZAS ([3]; 100 g of ai/ha): 5%
- damage, TRZAW ([4]; 25 g of ai/ha): 0%
- damage, TRZAW ([4]; 50 g of ai/ha): 2%
- damage, TRZAW ([4]; 100 g of ai/ha): 2%
- herbicidal effect (%), ANTAR [5]: 0%
- herbicidal effect (%), GALAP [6]: 66%
- herbicidal effect (%), LAMSS [7]: 53%
- herbicidal effect (%), MATCH [8]: 19%
- herbicidal effect (%), MYOAR [9]: 81%
- herbicidal effect (%), PAPRH [10]: 96%
- herbicidal effect (%), VIOAR [11]: 90%
- herbicidal effect, IPOHE ([12]; 50 g of ai/ha): 85%
- herbicidal effect, IPOHE ([12]; 100 g of ai/ha): 93%
- herbicidal effect, SETFA ([13]; 50 g of ai/ha): 85%
- herbicidal effect, SETFA ([13]; 100 g of ai/ha): 94%
- damage, ZEAMA [14]: 0%
- herbicidal effect, ECHCG [15]: 0%
- herbicidal effect, SETVI [16]: 0%
- damage, ORYSA ([17]; 25 g of ai/ha): 0%
- damage, ORYSA ([17]; 50 g of ai/ha): 0%
- damage, ORYSA ([17]; 100 g of ai/ha): 0%
